# Results from patent US8920788B2, “High-molecular weight conjugate of physiologically active substances” (priority 2008, dated 2014).
# Structures can show the parent of a compound that is named as a salt.
# Columns and labels:
# [1] = system: Mouse colon cancer, Colon 26; experiment: Antitumor activity, subcutaneously transplanted Colon 26 in mice; type: in vivo, female CDF1 mice; details: dose 15 mg/kg, once into tail vein
# From the text: Mouse colon cancer, Colon 26, maintained by serial subcutaneous subculture in mice, was minced into about 2-mm cubic fragments, and the fragments were subcutaneously transplanted on the dorsal part of female CDF1 mice with a trocar. Eight days after the tumor transplantation, the high-molecular weight conjugate according to the present invention (Compound 2 and Compound 4) or a control drug (Comparative Compound 1 and doxorubicin hydrochloride) was each administered once into the mouse tail vein in a way such that each mouse received the same dose per body weight in terms of doxorubicin. Each compound was dissolved in a 5% liquid glucose for injection and used. After the administration, the major axis (L mm) and the minor axis (W mm) of the tumor were measured using a caliper, and the tumor volume was calculated by the formula (L×W^2)/2.
# [2] = Lethal dose of the control drug; type: in vivo; details: control drug of the antitumor test
# Description: The lethal dose of doxorubicin used as the control drug was 30 mg/kg, and therefore doxorubicin was administered at a dose of 15 mg/kg to perform the antitumor test.
smiles,measurement,setting,value
"COc1cccc2c1C(=O)c1c(O)c3c(c(O)c1C2=O)C[C@@](O)(C(=O)CO)C[C@@H]3O[C@H]1C[C@H](N)[C@H](O)[C@H](C)O1 [Doxorubicin, doxorubicin hydrochloride]",relative tumor volume based on the tumor volume on the day of administration,[1]; day 0 after administration,1.00
same,relative tumor volume based on the tumor volume on the day of administration,[1]; day 3 after administration,1.79
same,relative tumor volume based on the tumor volume on the day of administration,[1]; day 7 after administration,3.89
same,relative tumor volume based on the tumor volume on the day of administration,[1]; day 10 after administration,5.27
same,relative tumor volume based on the tumor volume on the day of administration,[1]; day 14 after administration,12.17
same,lethal dose,[2],30 mg/kg
